Numbered stars: 1 amine (or outer) side, 2 acyl side, 3 side chain; on linkers, the order of the positions; unused ones are H or OH. Square brackets hold non-standard residues; d marks the D form. Peptide text beside a SMILES is read from it. X1 = O=C([C@H]1CCCN1C[C@@H](O)[C@@H](Cc1ccccc1)N[*:1])[*:2]

Our source for the IC50 and Ki values is ChEMBL document CHEMBL1125473, “A series of potent HIV-1 protease inhibitors containing a hydroxyethyl secondary amine transition state isostere: synthesis, enzyme inhibition, and antiviral activity” (J Med Chem, 1992).

The first assay deals with T1, Human immunodeficiency virus type 1 protease (Human immunodeficiency virus 1, UniProt Q72874). Put plainly: In vitro inhibition of HIV protease, using a peptide hydrolysis assay.
As usually defined, the IC50 is the midpoint of a concentration-inhibition curve. Low readings indicate greater potency in that assay, high ones weaker potency in that assay. `CC(C)(C)OC(=O)N[C@@H](Cc1ccccc1)[C@H](O)CNC(C(=O)N[C@H]1c2ccccc2C[C@H]1O)C(O)c1ccccc1` (stereo in doubt; 12) displayed an IC50 of 8.5 µM. Turning to `CC(C)(C)OC(=O)N[C@@H](Cc1ccccc1)[C@@H](O)CN[C@@H](Cc1ccccc1)C(=O)N[C@H]1c2ccccc2C[C@H]1O`, 4.7 µM corresponded to half-maximal inhibition (IC50). Still for that read-out and setting: the result for `CC(C)(C)OC(=O)N[C@@H](Cc1ccccc1)[C@H](O)CN[C@H](Cc1ccccc1)C(=O)N[C@H]1c2ccccc2C[C@H]1O` reads 7.3 µM; that for `CC(C)(C)OC(=O)N[C@@H](Cc1ccccc1)[C@@H](O)CN[C@H](Cc1ccccc1)C(=O)N[C@H]1c2ccccc2C[C@H]1O`, 23.4 µM.

Take `CC(C)(C)OC(=O)N[C@@H](Cc1ccccc1)[C@H](O)CNC(C(=O)N[C@H]1c2ccccc2C[C@H]1O)C(O)c1ccccc1` (stereo in doubt; 13): the half-maximal inhibitory concentration (IC50) was 8.6 µM. Same read-out and setting: the result for `CC(C)(C)OC(=O)N[C@@H](Cc1ccccc1)[C@H](O)CN[C@@H](Cc1ccccc1)C(=O)N[C@H]1c2ccccc2C[C@H]1O` reads 0.252 µM; that for `CC(C)(C)OC(=O)N[C@@H](Cc1ccccc1)C(O)CNC(Cc1ccccc1)C(=O)NC(CO)c1ccccc1` (stereo not given in full), 38 µM.

Another assay addresses T1, Human immunodeficiency virus type 1 protease. The assay is described as follows: In vitro inhibition of HIV-Protease, using a peptide hydrolysis assay.
Regarding `N[C@@H](Cc1ccccc1)C(O)CN[C@@H](Cc1ccccc1)C(=O)NC1c2ccccc2C[C@H]1O` (stereo not given in full), the IC50 came to 63 µM. In turn, `CC(C)(C)NC(=O)C(Cc1ccccc1)NCC(O)[C@H](Cc1ccccc1)NC(=O)OC(C)(C)C` (stereo not given in full) yielded an IC50 of over 100 µM. The term Ki denotes the dissociation constant of the complex between target and ligand, obtained from inhibition or displacement. Take `CC[C@H](C)[C@H](NC(=O)[C@H]1CCCN1C[C@@H](O)[C@@H](Cc1ccccc1)NC(=O)[C@H](CC(N)=O)NC(=O)[C@H](CC(C)C)NC(=O)[C@@H](N)CO)C(=O)N[C@H](C(=O)OC)C(C)C` (H-SLN[X1]IV-OMe): the affinity corresponds to a Ki of 0.00024 µM.

`NC(=O)CC(NC(=O)c1ccc2ccccc2n1)C(=O)N[C@@H](Cc1ccccc1)[C@H](O)CN[C@@H](Cc1ccccc1)C(=O)NC1c2ccccc2C[C@H]1O` (stereo not given in full) yielded an IC50 of 0.0054 µM. Still for that read-out and setting: then `CC(C)(C)NC(=O)[C@@H]1C[C@@H]2CCCC[C@@H]2CN1C[C@@H](O)[C@H](Cc1ccccc1)NC(=O)OC(C)(C)C`, with over 3 µM.

In turn, `CC(C)(C)OC(=O)NC(CC(N)=O)C(=O)N[C@@H](Cc1ccccc1)C(O)CN[C@@H](Cc1ccccc1)C(=O)NC1c2ccccc2C[C@H]1O` (stereo not given in full) yielded a concentration for half-maximal inhibition (IC50) of 0.295 µM.

As to `CC(C)(C)OC(=O)N[C@@H](Cc1ccccc1)[C@H](O)CN1C[C@H]2CCCC[C@H]2C[C@H]1C(=O)NC1c2ccccc2CC1O` (stereo not given in full), the IC50 was over 3 µM. As to `NC(=O)CC(N)C(=O)N[C@@H](Cc1ccccc1)[C@H](O)CN[C@@H](Cc1ccccc1)C(=O)NC1c2ccccc2C[C@H]1O` (stereo not given in full), the concentration for half-maximal inhibition (IC50) was 1.1 µM.
